Test results as given in patent publication US11007136B2, “Cosmetic composition for wrinkle reduction containing gypenoside isolated from Gynostemma pentaphyllum” (CELLTRION INC., priority 2015, dated 2021).

Legend:
[1] = tested on: human dermal fibroblast neonatal; assay: Cytotoxicity test (MTT); format: cell-based; conditions: for HDFn Viability: 48 h, % control
Procedure: A human dermal fibroblast neonatal (Cascade Co.) was inoculated into a 24-well microplate (5×10^4 cells/well) by using a medium, in which Dulbeco's Modified Eagle's Medium (DMEM) was supplemented with 10% fetal bovine serum, thus being cultured under a condition of 37° C. and 5% CO2 for 24 hours. Then, the same was replaced with a serum-free DMEM medium and cultured for 24 hours, thus treating the Gynostemma pentaphyllum gypenoside fraction obtained from the Example 1 and the gypenosides UL4 and UL5 isolated therefrom, respectively. After being cultured for 48 hours, an MTT solution was added thereto, thus being cultured for four hours. The medium was removed therefrom and DMSO was added thereto, thus dissolving an MTT formazan. The MTT formazan dissolved in the DMSO was taken out and an optical density thereof was measured at 570 nm, thus being compared to a group without sample treatment and indicated as % control.

[2] = tested on: human dermal fibroblast neonatal; assay: Procollagen production (collagen synthesis promotion), ELISA kit; format: cell-based; conditions: 1 and 5 μg/ml, 48 h, versus positive control NAG at the same concentration, FIG. 3
Procedure: A human dermal fibroblast neonatal (Cascade Co.) was inoculated into a 24-well microplate (5×10^4 cells/well) by using a medium, in which Dulbeco's Modified Eagle's Medium (DMEM) was supplemented with 10% fetal bovine serum, thus being cultured under a condition of 37° C. and 5% CO2 for 24 hours. Then, the same was replaced with a serum-free DMEM medium and cultured for 24 hours, after which an appropriate amount of a sample fluid was treated so that a final concentration of each test compound could reach 1 μg/ml and 5 μg/ml. After being cultured for 48 hours, a cell culture fluid was collected and then an amount of procollagen was measured by using a collagen measurement kit of Takara Company (Takara Shuzo Co., Ltd.). First of all, the collected cell culture fluid was injected into a 96-well microplate, to which a primary collagen antibody was evenly applied, such that an antigen-antibody reaction could occur at 37° C. for three hours. The cell culture fluid was removed from the well and washed four times with PBS. A color causing material was injected into each well, after which a reaction took place at a room temperature for 15 minutes, such that 1 N sulfuric acid solution was added thereto, thus stopping the reaction. An optical density was measured at a wavelength of 450 nm by means of a spectrophotometer. […]

[3] = Titer stability of UL4 and UL5 within formulations (HPLC); format: physicochemical; conditions: for content stability Result: over 12 weeks
Procedure: As shown in Formulation Examples 1, 2 and 3, cosmetic compositions of a high viscosity emulsified formulation, a low viscosity emulsified formulation and a solubilized formulation, respectively comprising 0.2% of the Gynostemma pentaphyllum gypenoside fraction, were stored under a condition of 4 CC, 30 CC, 45° C. and sunlight for 12 weeks and changes with passage of time (% compared to an initial content) in the gypenosides UL4 and UL5, which were index ingredients for quantification out of the Gynostemma pentaphyllum gypenoside ingredients, were observed through an HPLC analysis, and results thereof were indicated in Tables 10 to 12.

content, % compared to an initial content ([3]; High viscosity emulsified formulation, 4° C., 1 week): 101.9% | content, % compared to an initial content ([3]; High viscosity emulsified formulation, 4° C., 2 weeks): 95.9% | content, % compared to an initial content ([3]; High viscosity emulsified formulation, 4° C., 4 weeks): 102% | content, % compared to an initial content ([3]; High viscosity emulsified formulation, 4° C., 8 weeks): 101.4% | content, % compared to an initial content ([3]; High viscosity emulsified formulation, 4° C., 12 weeks): 104.1% | content stability Result ([3]; High viscosity emulsified formulation, 4° C.): Stable | content, % compared to an initial content ([3]; High viscosity emulsified formulation, 30° C., 1 week): 105.2% | content, % compared to an initial content ([3]; High viscosity emulsified formulation, 30° C., 2 weeks): 103.1% | content, % compared to an initial content ([3]; High viscosity emulsified formulation, 30° C., 4 weeks): 104.4% | content, % compared to an initial content ([3]; High viscosity emulsified formulation, 30° C., 8 weeks): 105.7% | content, % compared to an initial content ([3]; High viscosity emulsified formulation, 30° C., 12 weeks): 108.2% | content stability Result ([3]; High viscosity emulsified formulation, 30° C.): Stable | content, % compared to an initial content ([3]; High viscosity emulsified formulation, 45° C., 1 week): 105.3% | content, % compared to an initial content ([3]; High viscosity emulsified formulation, 45° C., 2 weeks): 108.2% | content, % compared to an initial content ([3]; High viscosity emulsified formulation, 45° C., 4 weeks): 107.6% | content, % compared to an initial content ([3]; High viscosity emulsified formulation, 45° C., 8 weeks): 108.1% | content, % compared to an initial content ([3]; High viscosity emulsified formulation, 45° C., 12 weeks): 107.1% | content stability Result ([3]; High viscosity emulsified formulation, 45° C.): Stable | content, % compared to an initial content ([3]; High viscosity emulsified formulation, Sunlight, 1 week): 102.4% | content, % compared to an initial content ([3]; High viscosity emulsified formulation, Sunlight, 2 weeks): 99.8% | content, % compared to an initial content ([3]; High viscosity emulsified formulation, Sunlight, 4 weeks): 101.2% | content, % compared to an initial content ([3]; High viscosity emulsified formulation, Sunlight, 8 weeks): 99.4% | content, % compared to an initial content ([3]; High viscosity emulsified formulation, Sunlight, 12 weeks): 103.6% | content stability Result ([3]; High viscosity emulsified formulation, Sunlight): Stable | content, % compared to an initial content ([3]; Low viscosity emulsified formulation, 4° C., 1 week): 100.1% | content, % compared to an initial content ([3]; Low viscosity emulsified formulation, 4° C., 2 weeks): 102.4% | content, % compared to an initial content ([3]; Low viscosity emulsified formulation, 4° C., 4 weeks): 101.2% | content, % compared to an initial content ([3]; Low viscosity emulsified formulation, 4° C., 8 weeks): 94.9% | content, % compared to an initial content ([3]; Low viscosity emulsified formulation, 4° C., 12 weeks): 94.1% | content stability Result ([3]; Low viscosity emulsified formulation, 4° C.): Stable | content, % compared to an initial content ([3]; Low viscosity emulsified formulation, 30° C., 1 week): 105.0% | content, % compared to an initial content ([3]; Low viscosity emulsified formulation, 30° C., 2 weeks): 101.8% | content, % compared to an initial content ([3]; Low viscosity emulsified formulation, 30° C., 4 weeks): 101.6% | content, % compared to an initial content ([3]; Low viscosity emulsified formulation, 30° C., 8 weeks): 104.1% | content, % compared to an initial content ([3]; Low viscosity emulsified formulation, 30° C., 12 weeks): 105.2% | content stability Result ([3]; Low viscosity emulsified formulation, 30° C.): Stable | content, % compared to an initial content ([3]; Low viscosity emulsified formulation, 45° C., 1 week): 101.9% | content, % compared to an initial content ([3]; Low viscosity emulsified formulation, 45° C., 2 weeks): 106.2% | content, % compared to an initial content ([3]; Low viscosity emulsified formulation, 45° C., 4 weeks): 105.9% | content, % compared to an initial content ([3]; Low viscosity emulsified formulation, 45° C., 8 weeks): 95.6% | content, % compared to an initial content ([3]; Low viscosity emulsified formulation, 45° C., 12 weeks): 99.3% | content stability Result ([3]; Low viscosity emulsified formulation, 45° C.): Stable | content, % compared to an initial content ([3]; Low viscosity emulsified formulation, Sunlight, 1 week): 96.3% | content, % compared to an initial content ([3]; Low viscosity emulsified formulation, Sunlight, 2 weeks): 99.5% | content, % compared to an initial content ([3]; Low viscosity emulsified formulation, Sunlight, 4 weeks): 100.5% | content, % compared to an initial content ([3]; Low viscosity emulsified formulation, Sunlight, 8 weeks): 99.8% | content, % compared to an initial content ([3]; Low viscosity emulsified formulation, Sunlight, 12 weeks): 102% | content stability Result ([3]; Low viscosity emulsified formulation, Sunlight): Stable | content, % compared to an initial content ([3]; Solubilized formulation, 4° C., 1 week): 98.8% | content, % compared to an initial content ([3]; Solubilized formulation, 4° C., 2 weeks): 91.9% | content, % compared to an initial content ([3]; Solubilized formulation, 4° C., 4 weeks): 98.7% | content, % compared to an initial content ([3]; Solubilized formulation, 4° C., 8 weeks): 97.6% | content, % compared to an initial content ([3]; Solubilized formulation, 4° C., 12 weeks): 99.5% | content stability Result ([3]; Solubilized formulation, 4° C.): Stable | content, % compared to an initial content ([3]; Solubilized formulation, 30° C., 1 week): 100.0% | content, % compared to an initial content ([3]; Solubilized formulation, 30° C., 2 weeks): 103.2% | content, % compared to an initial content ([3]; Solubilized formulation, 30° C., 4 weeks): 102.7% | content, % compared to an initial content ([3]; Solubilized formulation, 30° C., 8 weeks): 98.5% | content, % compared to an initial content ([3]; Solubilized formulation, 30° C., 12 weeks): 104.5% | content stability Result ([3]; Solubilized formulation, 30° C.): Stable | content, % compared to an initial content ([3]; Solubilized formulation, 45° C., 1 week): 102.8% | content, % compared to an initial content ([3]; Solubilized formulation, 45° C., 2 weeks): 101.6% | content, % compared to an initial content ([3]; Solubilized formulation, 45° C., 4 weeks): 94.2% | content, % compared to an initial content ([3]; Solubilized formulation, 45° C., 8 weeks): 97.2% | content, % compared to an initial content ([3]; Solubilized formulation, 45° C., 12 weeks): 94.9% | content stability Result ([3]; Solubilized formulation, 45° C.): Stable | content, % compared to an initial content ([3]; Solubilized formulation, Sunlight, 1 week): 98.8% | content, % compared to an initial content ([3]; Solubilized formulation, Sunlight, 2 weeks): 94.8% | content, % compared to an initial content ([3]; Solubilized formulation, Sunlight, 4 weeks): 98.4% | content, % compared to an initial content ([3]; Solubilized formulation, Sunlight, 8 weeks): 98% | content, % compared to an initial content ([3]; Solubilized formulation, Sunlight, 12 weeks): 94.6% | content stability Result ([3]; Solubilized formulation, Sunlight): Stable
Structure (SMILES): CC(C)=CC1C[C@](O)([C@H]2CC[C@]3(C)[C@@H]2CC[C@@H]2[C@@]4(C=O)CC[C@H](O[C@@H]5OC[C@H](O)[C@H](O[C@@H]6OC[C@@H](O)[C@H](O)[C@H]6O)[C@H]5O[C@@H]5O[C@@H](C)[C@H](O)[C@@H](O)[C@H]5O)C(C)(C)[C@@H]4CC[C@]23C)[C@H](O)O1 (stereo partly drawn) [Gypenoside UL4, (23ξ)-3β,20β,21α-trihydroxy-19-oxo-21,23-epoxy-dammar-24-ene-3-O-[α-L-rhamnopyranosyl (1→2)][β-D-xylopyranosyl (1→3)]-α-L-arabinopyranoside]
HDFn Viability ([1]; 5 ug/ml): 98% | HDFn Viability ([1]; 10 ug/ml): 100% | HDFn Viability ([1]; 50 ug/ml): 106% | cytotoxicity ([1]; at concentrations promoting procollagen synthesis): did not show any cytotoxicity | procollagen-producing effect compared with NAG [2]: the same or larger amount of procollagen
